Measurements: US20190240187A1, “ORAL PREPARATIONS WITH OMEPRAZOLE OR PANTOPRAZOLE” (SYMRISE AG, priority 2015, published 2019)

Test: Bitter masking test: aqueous omeprazole solutions tasted by a panel in duo comparison tests
Format: in vivo
Conditions: 500 ppm omeprazole; for Masking effect on the bitterness of omeprazole (in words): 100 ppm additive
From the text: To test the bitter masking effect, aqueous solutions, each containing 500 ppm omeprazole
(V1) alone or together (1) with 100 ppm eriodyctiol (ED) or (2) with 100 ppm homoeriodyctiol sodium salt (HE) or (3) with 100 ppm eriodyctiol+100 ppm homoeriodyctiol sodium salt or (V4) with 100 ppm 4′-fluoro-6-methoxyflavanone as a reference substance that has no masking effect, were tasted. Solutions 2-5 were each tasted by an experienced panel of 20-30 testers in a randomized order against solution 1 in duo comparison tests and the bitterness of each sample was estimated on a scale of 0 to 100.

Row | SMILES | Bitterness (mean panel estimate (20-30 testers) on a scale of 0 to 100, aqueous solution, additives 100 ppm each) | Masking effect on the bitterness of omeprazole (in words)
1 | COc1ccc2[nH]c([S+]([O-])Cc3ncc(C)c(OC)c3C)nc2c1 (racemic) [Example V1, (RS)-5-methoxy-2-[(4-methoxy-3,5-dimethylpyridin-2-yl)methanesulfinyl]-1H-benzoinnidazole, reference compound] | 80 | 
2 | O=C1CC(c2ccc(O)c(O)c2)Oc2cc(O)cc(O)c21 (stereo not drawn) [ED, 2-(3,4-dihydroxyphenyl)-5,7-dihydroxy-4-chronnanone] |  | act on their own as masking agents
3 | COc1cc(C2CC(=O)c3c(O)cc(O)cc3O2)ccc1O (stereo not drawn) [HE, 5-7-dihydroxy-2-(4-hydroxy-3-methoxyphenyl)-4-chronnanone] |  | act on their own as masking agents
